Active and inactive are the calls of the source. The calls are words filed in the database; no cut-off is given here.
Columns and labels:
[1] = molecular target: Kappa-type opioid receptor (Homo sapiens, UniProt P41145); assay: Binding affinity to kappa opioid receptor (unknown origin)
[2] = molecular target: Mu-type opioid receptor (Homo sapiens, UniProt P35372); assay: Binding affinity to mu opioid receptor (unknown origin)
[3] = species: Cavia porcellus; assay: Agonist activity at opioid receptor in guinea pig ileum assessed as inhibition of electrically-induced twitch at 100 pM to 30 uM relative to morphine; type: tissue-based
[4] = tested on: Rattus norvegicus; assay: Inhibition of gastrointestinal transit of charcoal meal in rat at 55.2 mg/kg, po; type: organism-based; set-up: dose 55.2 mg/kg, route oral; settings: in vivo
[5] = tested on: Mus musculus; assay: Antinociceptive activity in mouse at 92 mg/kg, po by hot plate test; type: functional
[6] = species: Cavia porcellus; assay: Selectivity ratio of Ki for mu opioid receptor in Dunkin-Hartley guinea pig brain over Ki for delta opioid receptor in Dunkin-Hartley guinea pig brain
[7] = molecular target: T1, Kappa-type opioid receptor (Cavia porcellus, UniProt P41144); assay: Displacement of [3H]U-69593 from kappa opoid receptor in Dunkin-Hartley guinea pig brain after 1 hr by liquid scintillation spectrometry
T1 sequence (P41144 whole entry): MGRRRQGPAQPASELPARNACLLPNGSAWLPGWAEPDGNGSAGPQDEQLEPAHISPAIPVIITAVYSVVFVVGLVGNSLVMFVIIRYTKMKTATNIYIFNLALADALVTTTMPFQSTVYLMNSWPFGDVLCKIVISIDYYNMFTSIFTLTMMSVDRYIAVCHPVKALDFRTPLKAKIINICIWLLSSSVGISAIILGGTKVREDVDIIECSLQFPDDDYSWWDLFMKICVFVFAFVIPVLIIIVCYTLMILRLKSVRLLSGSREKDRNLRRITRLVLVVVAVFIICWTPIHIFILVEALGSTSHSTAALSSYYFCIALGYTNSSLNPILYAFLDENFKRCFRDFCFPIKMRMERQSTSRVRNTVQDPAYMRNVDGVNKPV

[8] = Displacement of [3H]DPDPE from delta opoid receptor in Dunkin-Hartley guinea pig brain after 2 hrs by liquid scintillation spectrometry; set-up: species or system Cavia porcellus
[9] = tested on: Mus musculus; assay: Antinociceptive activity in ddY mouse assessed as tolerance level at 10 mg/kg, sc bid measured on day 5 by tail-flick test; type: functional
[10] = molecular target: T1, Kappa-type opioid receptor; assay: Displacement of [3H]U-69,593 from guinea pig brain kappa opoid receptor after 1 hr by liquid scintillation counting analysis
[11] = Displacement of [3H]DPDPE from guinea pig brain delta opoid receptor after 4 hrs by liquid scintillation counting analysis; set-up: species or system Cavia porcellus
[12] = molecular target: T2, Mu-type opioid receptor (Cavia porcellus, UniProt P97266); assay: Displacement of [3H]DAMGO from guinea pig brain mu opoid receptor after 3 hrs by liquid scintillation counting analysis
T2 sequence (P97266 whole entry): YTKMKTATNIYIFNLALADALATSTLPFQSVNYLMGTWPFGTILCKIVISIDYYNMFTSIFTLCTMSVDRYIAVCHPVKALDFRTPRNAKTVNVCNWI

[13] = molecular target: T2, Mu-type opioid receptor; assay: Displacement of [3H]DAMGO from mu opoid receptor in Dunkin-Hartley guinea pig brain after 1.5 hrs by liquid scintillation spectrometry
[14] = Binding affinity to delta opioid receptor (unknown origin)

Sequence of Kappa-type opioid receptor (Homo sapiens, UniProt P41145) (P41145 whole entry): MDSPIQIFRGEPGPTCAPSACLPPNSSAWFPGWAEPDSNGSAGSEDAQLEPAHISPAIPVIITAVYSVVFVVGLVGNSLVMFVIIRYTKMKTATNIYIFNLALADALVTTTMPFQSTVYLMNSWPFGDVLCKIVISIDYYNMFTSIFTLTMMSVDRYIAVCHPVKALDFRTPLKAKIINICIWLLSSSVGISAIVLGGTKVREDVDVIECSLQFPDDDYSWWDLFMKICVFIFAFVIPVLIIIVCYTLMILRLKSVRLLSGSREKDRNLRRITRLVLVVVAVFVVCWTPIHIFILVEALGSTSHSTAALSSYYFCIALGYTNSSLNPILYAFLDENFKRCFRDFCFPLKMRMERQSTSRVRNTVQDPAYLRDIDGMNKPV
Sequence of Mu-type opioid receptor (Homo sapiens, UniProt P35372) (P35372 whole entry): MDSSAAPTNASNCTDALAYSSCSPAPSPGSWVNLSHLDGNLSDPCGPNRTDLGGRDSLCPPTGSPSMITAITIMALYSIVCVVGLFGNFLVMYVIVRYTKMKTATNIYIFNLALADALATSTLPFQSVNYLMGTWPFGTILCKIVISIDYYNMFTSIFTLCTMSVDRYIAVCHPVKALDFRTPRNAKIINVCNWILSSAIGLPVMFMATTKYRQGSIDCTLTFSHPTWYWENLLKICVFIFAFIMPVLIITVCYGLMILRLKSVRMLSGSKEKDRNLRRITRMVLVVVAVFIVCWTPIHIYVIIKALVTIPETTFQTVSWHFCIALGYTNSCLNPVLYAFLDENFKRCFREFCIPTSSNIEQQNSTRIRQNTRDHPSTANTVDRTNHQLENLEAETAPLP

Compound: CC[C@@H]1CN2CC[C@@]34OCCO[C@@]3(Nc3ccc(F)c(OC)c34)[C@@H]2C[C@@H]1/C(=C\OC)C(=O)OC
- Ki [1]: 7 nM
- Ki [2]: 7 nM

Compound: CC[C@@H]1CN2CCc3c([nH]c4cccc(OC)c34)[C@@H]2C[C@@H]1/C(=C\OC)C(=O)OC
- Efficacy [3]: 95%
- inhibition [3]: 26%
- inhibition (INH) [4]: 18%
- Activity [5]: 100%
- Ratio Ki [6]: 10
- Ki [7]: > 1000 nM
- Ki [8]: 60 nM

Compound: CC[C@@H]1CN2CC[C@@]3(OC(C)=O)C(=Nc4cccc(OC)c43)[C@@H]2C[C@@H]1/C(=C\OC)C(=O)OC
- Efficacy [3]: 15%
- inhibition [3]: 21%

Compound: COc1ccc2c3c1O[C@H]1[C@@H](O)C=C[C@H]4[C@@H](C2)N(C)CC[C@@]341 [CODEINE]
- inhibition (INH) [4]: 70%

Compound: CC[C@@H]1CN2CCc3c([nH]c4cccc(OC(C)=O)c34)[C@@H]2C[C@@H]1/C(=C\OC)C(=O)OC
- Efficacy [3]: 38%
- inhibition [3]: 2%

Compound: CC[C@@H]1CN2CCc3c([nH]c4cccc(O)c34)[C@@H]2C[C@@H]1/C(=C\OC)C(=O)OC
- Efficacy [3]: 57%
- inhibition [3]: 41%

Compound: CC[C@@H]1CN2CC[C@@]3(O)C(=Nc4cccc(OC)c43)[C@@H]2C[C@@H]1/C(=C\OC)C(=O)OC
- Efficacy [3]: 99%
- Activity [9]: Active
- Ki [10]: 195 nM
- Ki [11]: 145 nM
- Ki [12]: 9.8 nM
- Ratio Ki [6]: > 10
- Ki [8]: 155 nM
- Ki [13]: 13 nM

Compound: CC[C@@H]1CN2CC[C@@]3(OC)C(=Nc4cccc(OC)c43)[C@@H]2C[C@@H]1/C(=C\OC)C(=O)OC
- Efficacy [3]: 70%
- inhibition [3]: 19%

Compound: CC[C@@H]1CN2CC[C@]3(Nc4cccc(OC)c4C3=O)[C@@H]2C[C@@H]1/C(=C\OC)C(=O)OC
- Ki [1]: 79 nM
- Ki [2]: 0.01 nM
- Ki [14]: 3 nM

Compound: CCO[C@]12CCN3C[C@@H](CC)[C@@H](/C(=C\OC)C(=O)OC)C[C@H]3C1=Nc1cccc(OC)c12
- Efficacy [3]: 26%
- inhibition [3]: 1%

Compound: CN1CC[C@]23c4c5ccc(O)c4O[C@H]2[C@@H](O)C=C[C@H]3[C@H]1C5 [MORPHINE]
- inhibition (INH) [4]: 70%
- Activity ([9]; route subcutaneous): 100%

— ChEMBL document CHEMBL2396537, “Orally active opioid compounds from a non-poppy source” (J Med Chem, 2013)
